Assay results taken from PubChem BioAssay AID1996.
Values after ≈ are worked out from the molar mass of the structure shown.

Settings: buffer; pH 7.4; 200.0 µM

Going from CC(=O)Nc1ccc(Nc2nc(C)cc(C)n2)cc1 to Cc1ccc(NC(=S)Nc2ccc3[nH]c(=O)[nH]c3c2)cc1C, the solubility kinetic falls from over 38.4 µg/mL to 17.9 µg/mL (≈ 57.3 µM).

COc1ccccc1NC(=O)N1CCC(c2nc3ccccc3o2)CC1 and CC1CCN(C(=O)c2ccc(N3C(=O)c4ccccc4C3=O)cc2)CC1 are within 1.5-fold of each other in solubility kinetic: 44.9 µg/mL (≈ 128 µM) for the first, 33.5 µg/mL (≈ 96.2 µM) for the second.

O=C(OCC(=O)N1CCCCCC1)c1ccc[nH]c1=O and Cc1onc(-c2ccccc2Cl)c1C(=O)OCC(=O)N1CCCCC1 cannot be ordered by solubility kinetic: over 41.7 µg/mL for the first, over 54.4 µg/mL for the second.

COc1ccc(Cc2n[nH]c(=S)o2)cc1 and COc1ccc(-n2c(CNCCc3ccc(C)cc3)nc3ccccc3c2=O)cc1 cannot be ordered by solubility kinetic: over 33.3 µg/mL for the first, 45.2 µg/mL (≈ 113 µM) for the second.

First: Cc1ccc(S(=O)(=O)Nc2ccccc2CNC2CCCCC2)cc1
Second: Cc1ccc(Cl)cc1NS(=O)(=O)Cc1ccccc1
The solubility kinetic of the first is higher: over 53.8 µg/mL for the first, 9 µg/mL (≈ 30.4 µM) for the second.

CCOC(=O)c1cc2cc([N+](=O)[O-])ccc2oc1=O and O=c1[nH]c(/C=C/c2ccc([N+](=O)[O-])cc2)c([N+](=O)[O-])c(=O)[nH]1 are within 1.5-fold of each other in solubility kinetic: 18.9 µg/mL (≈ 71.8 µM) for the first, 24.9 µg/mL (≈ 81.8 µM) for the second.

Compared with CCOC(=O)C1CCCN(c2c(NCCc3cccc(C)c3)c(=O)c2=O)C1 (stereo not given), Cc1ccc(Br)c(NS(=O)(=O)c2cccc(C(=O)N3CCNC(=O)C3)c2)c1 is higher in solubility kinetic: 18 µg/mL (≈ 48.6 µM) for the first, over 67.8 µg/mL for the second.

O=C(Nc1ccc(OCC(=O)N2CCOCC2)cc1)c1ccccc1F and O=C(COC(=O)c1cc(S(=O)(=O)N2CCOCC2)ccc1F)c1ccccc1 cannot be ordered by solubility kinetic: over 53.8 µg/mL for the first, over 61.1 µg/mL for the second.

COC(CNc1nc(SC)nc2sc3c(c12)CCN(C)C3)OC and Cc1c(C)n(CCO)c2ncnc(Nc3ccc(F)cc3)c12 cannot be ordered by solubility kinetic: 52.4 µg/mL (≈ 148 µM) for the first, over 45.1 µg/mL for the second.

Going from N#Cc1ccccc1N/C=C/C(=O)c1ccc(Cl)cc1 to O=C(Nc1nc2ccccc2[nH]1)c1ccc(Cl)cc1, the solubility kinetic rises from 0.8 µg/mL (≈ 2.83 µM) to 1.8 µg/mL (≈ 6.62 µM) (2.2-fold).

Cc1ccc(S(=O)(=O)N2CCCC(C(=O)NCC3CCCO3)C2)cc1 (stereo not given) and Cc1ccc(NC(=O)CN2C(=O)CNC2=O)cc1 cannot be ordered by solubility kinetic: over 55 µg/mL for the first, over 37.1 µg/mL for the second.

First: CCOc1ccc(Br)cc1C(=S)N1CCCC1
Second: CC1CCN(CCNC(=S)Nc2ccc(Cl)cc2)CC1
The solubility kinetic of the first is lower: 6.2 µg/mL (≈ 19.7 µM) for the first, over 46.8 µg/mL for the second.

Compared with Cc1cc(=O)c2cc(Br)ccc2n1CC(=O)NCc1ccccc1, CCC(=O)c1cn(CC(=O)Nc2ccccc2F)c2ccccc12 is 2.5-fold higher in solubility kinetic: 1.3 µg/mL (≈ 3.37 µM) for the first, 3.2 µg/mL (≈ 9.87 µM) for the second.

Going from Cc1ccc2[nH]c3c(NCc4ccccc4)ncnc3c2c1 to Cc1cc(OCC(=O)N(C)Cc2ccccc2)cc(C)c1Cl, the solubility kinetic rises from 4.4 µg/mL (≈ 15.3 µM) to 8.3 µg/mL (≈ 26.1 µM) (1.9-fold).

Compared with CCc1sc(C(=O)Nc2ccc3nc(C)sc3c2)cc1C, Cc1nc(-c2ccc(NC(=O)c3ccco3)cc2)cs1 is 11-fold higher in solubility kinetic: 1.6 µg/mL (≈ 5.06 µM) for the first, 18.2 µg/mL (≈ 64 µM) for the second.

Compared with O=C(Nc1ccc(Oc2cccc(C(F)(F)F)c2)nc1)c1ccco1, CCN(CC)C(=O)c1ccc(NC(=O)c2cccc(C(F)(F)F)c2)cc1 is 2.3-fold higher in solubility kinetic: 1.2 µg/mL (≈ 3.45 µM) for the first, 2.8 µg/mL (≈ 7.68 µM) for the second.

CS(=O)(=O)CCSc1ncccc1C(=O)NCc1cccs1 and Cc1ccc(CNC(=O)c2ccc[nH]2)cc1 cannot be ordered by solubility kinetic: 53.1 µg/mL (≈ 149 µM) for the first, over 32.1 µg/mL for the second.

Cc1ccccc1NC(=O)COC(=O)C1C2CC3OC(=O)C1C3C2 (stereo not given) and Cc1ccccc1NC(=O)COC(=O)c1cccnc1 cannot be ordered by solubility kinetic: over 49.4 µg/mL for the first, over 40.5 µg/mL for the second.

Compared with COC(C(=O)Nc1c(F)cccc1F)c1ccccc1 (stereo not given), O=c1oc(-c2ccccc2F)nc2scc(-c3ccccc3)c12 is lower in solubility kinetic: over 41.6 µg/mL for the first, under 0.7 µg/mL for the second.

O=C(Nc1nc2cc3c(cc2s1)OCO3)C1CC1 and O=C(NC1=NCCS1)c1ccccc1OCc1ccc(F)cc1 cannot be ordered by solubility kinetic: under 0.3 µg/mL for the first, under 0.4 µg/mL for the second.

First: CN1CCN(C(=O)Nc2ccccc2)CC1.O=C(O)C(=O)O
Second: Cc1ccc2c(c1)cc(C(=O)N1CCN(c3ccccn3)CC1)n2C
The solubility kinetic of the first is higher: over 46.4 µg/mL for the first, 2.1 µg/mL (≈ 6.28 µM) for the second.

First: COc1ccc(-c2cn(-c3ccc(C)cc3C)c(=S)[nH]2)cc1OC
Second: COc1ccc(S(=O)(=O)NCc2ccc(F)cc2)cc1OC
The solubility kinetic of the first is lower: 16.8 µg/mL (≈ 49.3 µM) for the first, over 48.8 µg/mL for the second.

Compared with Cc1ccc(S(=O)(=O)Nc2c(C)nn(C)c2C)c(C)c1, CC(=O)c1c(C)[nH]c(C(=O)NCc2cccc(Cl)c2)c1C is lower in solubility kinetic: over 44 µg/mL for the first, 18.9 µg/mL (≈ 62 µM) for the second.

O=Cc1c(N2CCC3(CC2)OCCO3)nc2ccccn2c1=O and Cl.NCc1ccccc1CS(=O)(=O)N1CCOCC1 cannot be ordered by solubility kinetic: over 47.3 µg/mL for the first, over 46 µg/mL for the second.

COc1ccc(S(=O)(=O)N2CCN(c3ccccn3)CC2)cc1[N+](=O)[O-] and COc1ccccc1NC(=O)COC(=O)/C=C/c1ccc(OC)c(OC)c1 are within 1.5-fold of each other in solubility kinetic: 5.8 µg/mL (≈ 15.3 µM) for the first, 4.1 µg/mL (≈ 11 µM) for the second.

CC1=C(C)CC(C(=O)NCCCN2CCCC2=O)C(C(=O)O)C1 (stereo not given) and CCCCNC(=O)CC1NCCNC1=O (stereo not given) cannot be ordered by solubility kinetic: over 48.4 µg/mL for the first, over 32 µg/mL for the second.

Going from O=C(COC(=O)c1cncc(Br)c1)NC12CC3CC(CC(C3)C1)C2 to O=C(CCN1C(=O)C2CC=CCC2C1=O)NC1CCCCC1 (stereo not given), the solubility kinetic rises from 1.4 µg/mL (≈ 3.56 µM) to over 45.7 µg/mL.

First: O=c1[nH]c(O)c(C=Nc2cc(F)cc(F)c2)c(=O)[nH]1
Second: CCn1ccnc1CNC(=O)c1cc(COc2ccc(F)cc2F)on1
The solubility kinetic of the first is 18-fold lower: 2.8 µg/mL (≈ 10.5 µM) for the first, 49.3 µg/mL (≈ 136 µM) for the second.

Compared with c1cc(CCCc2ccncc2)ccn1, COc1ccc(OC)c(N/C=C/C(=O)c2ccc(OC)c(OC)c2)c1 is lower in solubility kinetic: over 29.7 µg/mL for the first, under 0.7 µg/mL for the second.

C=C(C)CCOC(=O)C(CC(=O)O)NCc1ccco1 (stereo not given) and Cc1ccccc1C(=O)NC(=S)NC1CCS(=O)(=O)C1 (stereo not given) cannot be ordered by solubility kinetic: over 42.2 µg/mL for the first, over 46.9 µg/mL for the second.
